23 compounds from patent US20220033397A1, “PHARMACEUTICAL COMPOUNDS AND THEIR USE AS INHIBITORS OF UBIQUITIN SPECIFIC PROTEASE 19 (USP19)” (ALMAC DISCOVERY LIMITED, priority 2018, published 2022) can be followed below.

Structures are written as SMILES.

This assay deals with T1, Full-length USP19 (Homo sapiens, UniProt O94966).
T1 construct: Full-length USP19 was purchased from Boston Biochem (E-576); purchased Boston Biochem E-576
T1 sequence (O94966 1-1318): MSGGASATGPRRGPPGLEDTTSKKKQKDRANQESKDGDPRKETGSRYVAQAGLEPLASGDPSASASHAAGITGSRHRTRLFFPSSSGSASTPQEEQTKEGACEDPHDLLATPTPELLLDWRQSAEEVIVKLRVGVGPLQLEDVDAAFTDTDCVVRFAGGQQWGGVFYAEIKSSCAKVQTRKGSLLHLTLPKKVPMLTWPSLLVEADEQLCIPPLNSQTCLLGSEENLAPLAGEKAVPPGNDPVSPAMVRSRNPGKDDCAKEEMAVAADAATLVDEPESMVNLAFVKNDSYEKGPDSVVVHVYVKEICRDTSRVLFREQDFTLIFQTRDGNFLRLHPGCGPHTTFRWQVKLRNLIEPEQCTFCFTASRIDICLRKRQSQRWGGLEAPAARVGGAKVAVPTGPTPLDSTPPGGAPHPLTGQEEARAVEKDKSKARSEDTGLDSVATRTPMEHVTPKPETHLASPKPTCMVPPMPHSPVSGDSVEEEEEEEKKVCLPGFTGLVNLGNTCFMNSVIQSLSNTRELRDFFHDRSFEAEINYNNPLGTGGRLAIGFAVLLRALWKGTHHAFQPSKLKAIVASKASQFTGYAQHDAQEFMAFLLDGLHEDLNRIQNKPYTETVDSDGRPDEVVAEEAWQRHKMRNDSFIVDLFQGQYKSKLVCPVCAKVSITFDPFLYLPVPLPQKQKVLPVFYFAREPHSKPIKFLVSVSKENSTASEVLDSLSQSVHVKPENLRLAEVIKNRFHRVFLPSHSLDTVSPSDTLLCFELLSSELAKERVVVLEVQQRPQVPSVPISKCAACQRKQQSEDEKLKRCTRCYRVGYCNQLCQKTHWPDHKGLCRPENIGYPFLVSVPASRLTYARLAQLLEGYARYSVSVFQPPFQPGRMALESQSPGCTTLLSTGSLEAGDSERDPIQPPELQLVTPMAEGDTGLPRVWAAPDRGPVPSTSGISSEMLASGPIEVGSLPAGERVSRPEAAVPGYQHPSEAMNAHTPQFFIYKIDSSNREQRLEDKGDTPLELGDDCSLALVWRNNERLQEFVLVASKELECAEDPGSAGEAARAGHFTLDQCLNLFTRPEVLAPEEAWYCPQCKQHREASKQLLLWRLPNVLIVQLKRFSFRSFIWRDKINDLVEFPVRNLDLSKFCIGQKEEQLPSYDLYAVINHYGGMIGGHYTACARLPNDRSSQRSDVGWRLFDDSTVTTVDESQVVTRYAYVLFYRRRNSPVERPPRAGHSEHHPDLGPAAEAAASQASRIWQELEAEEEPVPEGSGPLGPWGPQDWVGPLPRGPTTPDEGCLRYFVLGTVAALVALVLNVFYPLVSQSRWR
Briefly: USP19 fluorescence polarisation (FP) homogeneous assay with Ubiquitin-Lys-TAMRA substrate. The assay is classed as biochemical. Particulars: 2.5 nM USP19, 30 min pre-incubation, average of at least two duplicate experiments. The essentials:
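Full-length USP19 preincubated 30 min at RT with inhibitor (200 μM to 2 μM series, 8–18 points) before adding 500 nM Ubiquitin-Lys-TAMRA substrate.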
Background: In fluorescence polarisation assays a small probe gives low polarisation when free and higher when bound to something large.
The term IC50 denotes the concentration that inhibits the measured activity by half. Turning to `CN(Cc1cccnc1)C(=O)N1CCC(O)(Cn2cnc(-c3ccccc3)cc2=O)C2(CCCC2)C1` (centres unmarked) [Example 244, 10-Hydroxy-N-methyl-10-((6-oxo-4-phenylpyrimidin-1(6H)-yl)methyl)-N-(pyridin-3-ylmethyl)-7-azaspiro[4.5]decane-7-carboxamide], the IC50 was 5 to 50 µM.

On to `O=C(N1CC[C@@](O)(Cn2cnc(-c3ccccc3)cc2=O)C2(CCCC2)C1)N1CCCN1c1ccccc1` [Example 299, (S)-3-((10-Hydroxy-7-(2-phenylpyrazolidine-1-carbonyl)-7-azaspiro[4.5]decan-10-yl)methyl)-6-phenylpyrimidin-4(3H)-one], for which the IC50 fell in the range of 0.5 to 5 µM.

Turning to `COc1cc2ccn(CC3(O)CCN(C(=O)[C@H](C)CC4CCCCC4)CC34CCCC4)c(=O)c2cc1OC` (stereo partly drawn) [Example 146, 2-((7-((R)-3-Cyclohexyl-2-methylpropanoyl)-10-hydroxy-7-azaspiro[4.5]decan-10-yl)methyl)-6,7-dimethoxyisoquinolin-1(2H)-one], the IC50 fell in the range of 0.5 to 5 µM.

Regarding `N#Cc1ccc(CNC(=O)N2CC[C@@](O)(Cn3cnc(-c4ccccc4)cc3=O)C3(CCCC3)C2)cc1` [Example 215, (S)—N-(4-Cyanobenzyl)-10-hydroxy-10-((6-oxo-4-phenylpyrimidin-1(6H)-yl)methyl)-7-azaspiro[4.5]decane-7-carboxamide], the IC50 was 50 to 250 µM.

On to `C[C@H](CC1CCCCC1)C(=O)N1CCC(O)(CN2C(=O)C(=O)c3ccccc32)C2(CCCC2)C1` (stereo partly drawn) [Example 36, 1-((7-((R)-3-Cyclohexyl-2-methylpropanoyl)-10-hydroxy-7-azaspiro[4.5]decan-10-yl)methyl)indoline-2,3-dione], for which the IC50 lay within 5 to 50 µM.

For `COc1ccccc1-c1cc(=O)n(C[C@]2(O)CCN(C(=O)N3CCNC[C@H]3c3cccc(F)c3)CC23CCCC3)cn1` [Example 356, 3-(((S)-7-((R)-2-(3-Fluorophenyl)pipera-zine-1-carbonyl)-10-hydroxy-7-azaspiro[4.5]decan-10-yl)methyl)-6-(2-methoxyphenyl)pyri-midin-4(3H)-one], the IC50 is less than 0.5 µM.

For `O=C(NCC1(F)CC1)N1CC[C@@](O)(Cn2cnc(-c3ccccc3)cc2=O)C2(CCCC2)C1` [Example 311, (S)—N-((1-Fluorocyclopropyl)methyl)-10-hydroxy-10-((6-oxo-4-phenylpyrimidin-1(6H)-yl)methyl)-7-azaspiro[4.5]decane-7-carboxamide], the IC50 is 0.5 to 5 µM.

In the case of `CC(=O)N1CCN(CC2(O)CCN(C(=O)NCc3ccccc3)CC23CCCC3)C(=O)C1` (centres unmarked) [Example 111, 10-((4-Acetyl-2-oxopiperazin-1-yl)methyl)-N-benzyl-10-hydroxy-7-azaspiro[4.5]decane-7-carboxamide], the IC50 lay in the range of 5 to 50 µM.

Turning to `O=C(NCc1cccc(F)c1F)N1CC[C@@](O)(Cn2cnc(-c3ccccc3)cc2=O)C2(CCCC2)C1` [Example 301, (S)—N-(2,3-Difluorobenzyl)-10-hydroxy-10-((6-oxo-4-phenylpyrimidin-1(6H)-yl)methyl)-7-azaspiro[4.5]decane-7-carboxamide], the IC50 was less than 0.5 µM.

Take `O=C(N1CC[C@@](O)(Cn2cnc(N3CCCC3)cc2=O)C2(CCCC2)C1)N1CCOC[C@H]1c1ccccc1` [Example 223, 3-(((S)-10-Hydroxy-7-((R)-3-phenylmorpholine-4-carbonyl)-7-azaspiro[4.5]decan-10-yl)methyl)-6-(pyrrolidin-1-yl)pyrimidin-4(3H)-one]: the IC50 is less than 0.5 µM.

As to `O=C(NCc1cccnc1)N1CCC(O)(Cn2cnc(-c3ccccc3)cc2=O)C2(CCCC2)C1` (centres unmarked) [Example 199, 10-Hydroxy-10-((6-oxo-4-phenylpyrimidin-1(6H)-yl)methyl)-N-(pyridin-3-ylmethyl)-7-azaspiro[4.5]decane-7-carboxamide], the IC50 was in the range of 50 to 250 µM.

Take `C[C@H](CC1CCCCC1)C(=O)N1CCC(O)(Cn2cc(C(=O)N(C)C)c3ccccc3c2=O)C2(CCCC2)C1` (stereo partly drawn) [Example 145, 2-((7-((R)-3-Cyclohexyl-2-methylpropanoyl)-10-hydroxy-7-azaspiro[4.5]decan-10-yl)methyl)-N,N-dimethyl-1-oxo-1,2-dihydroisoquinoline-4-carboxamide]: the IC50 was in the range of 0.5 to 5 µM.

For `Cn1c2ncncc2c(=O)n1CC1(O)CCN(C(=O)N2CCNC[C@H]2c2ccccc2)CC12CCCC2` (stereo partly drawn) [Example 175, 2-((10-Hydroxy-7-((R)-2-phenylpiperazine-1-carbonyl)-7-azaspiro[4.5]decan-10-yl)methyl)-1-methyl-1,2-dihydro-3H-pyrazolo[3,4-d]pyrimidin-3-one], the IC50 lay in the range of 5 to 50 µM.

For `O=C(N1CCC(O)(Cn2cnc(-c3ccccc3)cc2=O)C2(CCCC2)C1)N1CCOC2CC21` (centres unmarked) [Example 243, 3-((7-(2-Oxa-5-azabicyclo[4.1.0]heptane-5-carbonyl)-10-hydroxy-7-azaspiro[4.5]decan-10-yl)methyl)-6-phenylpyrimidin-4(3H)-one], the IC50 fell in the range of 5 to 50 µM.

On to `C[C@H](CC1CCCCC1)C(=O)N1CCC(O)(Cn2cc(-c3cccnc3)ncc2=O)C(C)(C)C1` (stereo partly drawn) [Example 12, 1-((1-((R)-3-Cyclohexyl-2-methylpropanoyl)-4-hydroxy-3,3-dimethylpiperidin-4-yl)methyl)-5-(pyridin-3-yl)pyrazin-2(1H)-one], for which the IC50 is 0.5 to 5 µM.

In the case of `COc1ccc2ccn(CC3(O)CCN(C(=O)[C@H](C)CC4CCCCC4)CC34CCCC4)c(=O)c2c1` (stereo partly drawn) [Example 127, 2-((7-((R)-3-Cyclohexyl-2-methylpropanoyl)-10-hydroxy-7-azaspiro[4.5]decan-10-yl)methyl)-7-methoxyisoquinolin-1(2H)-one], the IC50 is 0.5 to 5 µM.

For `C[C@H](CC(F)(F)F)C(=O)N1CCC(O)(Cn2cnc3nc(N4CCN(C)CC4)ncc3c2=O)C2(CCCC2)C1` (stereo partly drawn) [Example 163, 3-((10-Hydroxy-7-((R)-4,44-trifluoro-2-methylbutanoyl)-7-azaspiro[4.5]decan-10-yl)methyl)-7-(4-methylpiperazin-1-yl)pyrimido[4,5-d]pyrimidin-4(3H)-one], the IC50 lay within 0.5 to 5 µM.

Consider `COc1ccc2c(=O)n(CC3(O)CCN(C(=O)[C@H](C)CC(F)(F)F)CC34CCCC4)cnc2c1` (stereo partly drawn) [Example 133, 3-((10-Hydroxy-7-((R)-4,4,4-trifluoro-2-methylbutanoyl)-7-azaspiro[4.5]decan-10-yl)methyl)-7-methoxyquinazolin-4(3H)-one], for which the IC50 was in the range of 5 to 50 µM.

In the case of `CN(C)C(=O)c1cn(CC2(O)CCN(C(=O)N(C)C3CCCCC3)CC23CCCC3)c(=O)cc1-c1ccccc1` (centres unmarked) [Example 89, N-Cyclohexyl-10-((5-(dimethylcarbamoyl)-2-oxo-4-phenylpyridin-1(2H)-yl)methyl)-10-hydroxy-N-methyl-7-azaspiro[4.5]decane-7-carboxamide], the IC50 was in the range of 5 to 50 µM.

With `O=C(N1CC[C@@](O)(Cn2cnc(-c3ccccc3)cc2=O)C2(CCCC2)C1)N1CCOC[C@H]1c1nc2ccccc2[nH]1` [Example 293, 3-(((S)-7-((R)-3-(1H-Benzo[d]imidazol-2-yl)morpholine-4-carbonyl)-10-hydroxy-7-azaspiro[4.5]decan-10-yl)methyl)-6-phenylpyrimidin-4(3H)-one], the IC50 was 50 to 250 µM.

For the compound `C[C@H](CC1CCCCC1)C(=O)N1CCC(O)(Cn2cc(N3CCCC3=O)ncc2=O)C(C)(C)C1` (stereo partly drawn) [Example 13, 1-((1-((R)-3-Cyclohexyl-2-methylpropanoyl)-4-hydroxy-3,3-dimethylpiperidin-4-yl)methyl)-5-(2-oxopyrrolidin-1-yl)pyrazin-2(1H)-one], the IC50 is 0.5 to 5 µM.

As to `C[C@H](CC1CCCCC1)C(=O)N1CCC(O)(CN2CC(Cc3ccccc3)CC2=O)C(C)(C)C1` (stereo partly drawn) [Example 30, 4-Benzyl-1-((1-((R)-3-cyclohexyl-2-methylpropanoyl)-4-hydroxy-3,3-dimethylpiperidin-4-yl)methyl)pyrrolidin-2-one], the IC50 lay within 0.5 to 5 µM.

Take `COCC1CNCCN1C(=O)N1CCC(O)(Cn2cnc(-c3ccccc3)cc2=O)C2(CCCC2)C1` (centres unmarked) [Example 277, 3-((10-Hydroxy-7-(2-(methoxymethyl)piperazine-1-carbonyl)-7-azaspiro[4.5]decan-10-yl)methyl)-6-phenylpyrimidin-4(3H)-one]: the IC50 lay within 50 to 250 µM.
